In brackets after ≈: the same amount, converted by molar mass.
Key:
M. scrofulaceum = details: cited from earlier work
MOR M. tuberculosis = details: cited from earlier work
M. avium [1] = details: cited from earlier work
A549 = assay: Cell viability (MTT) of pulmonary epithelial cells; type: cell-based
Description: (§1) MTT is the tetrazolium dye 3-(4,5-dimethylthiazol-2-yl)-2,5-diphenyltetrazolium bromide which is converted by mitochondrial reductase to its insoluble formazan. In living cells, the insoluble formazan can be dissolved by adding the detergent dimethylsulfoxide for 15 minutes. The absorption of the respective dye is measured by a plate-reader at 590 nm. For the calculation of the viability after the incubation of the test compounds a positive and a negative control is included. Hank's balanced salt solution (HBSS) is used as a negative control and the resulting absorbance value is set to 100% viability. The positive control (1% Triton-X-100) is used to set 0% viability. Accordingly, the IC50 value of the test formulation can be determined by measuring a dose-response curve in log-scale.
(§2) These formulations (designated as 100%) were diluted with HBSS to give the following formulations for testing:
(§3) Cells were treated with the test formulations for 4 hours at 37° C. The viability of the cells after exposure was used to set up a dose-response curve in logarithmic scale. A sigmoidal fit enables the IC20, IC50, and IC80 calculations of the test substances.

Calu-3 = assay: Cell viability (MTT) of pulmonary epithelial cells; type: cell-based
Description: as §1, §2, §3

M. vaccae = details: cited from earlier work
M. chelonae = details: cited from earlier work
M. hiberniae = details: cited from earlier work
[2] = test system: Mycobacterium tuberculosis H37Rv; details: standardized broth-dilution assay; cited from earlier work
M. fortuitum = details: cited from earlier work
M. avium [3] = details: cited from earlier work; remark: listed apart in the source
M. ulcerans = details: cited from earlier work
[4] = in vivo, cited from earlier work
[5] = test system: Drug-susceptible M. tuberculosis; details: cited from earlier work
M. abscessus [6] = details: cited from earlier work
M. marinum = details: cited from earlier work
M. kansasii = details: cited from earlier work
M. simiae = details: cited from earlier work
M. qordonae = details: cited from earlier work
M. smeqmatis mc2 155 = details: cited from earlier work
M. malmoense = details: cited from earlier work
M. abscessus [7] = details: cited from earlier work; remark: listed apart in the source
M. phlei = details: cited from earlier work
M. maqeritense = details: cited from earlier work
[8] = human, in vivo, 400 mg; cited from earlier work

COc1nc2ccc(Br)cc2cc1[C@@H](c1ccccc1)[C@@](O)(CCN(C)C)c1cccc2ccccc12 [bedaquiline, (1R,2S)-1-(6-bromo-2-methoxyquinolin-3-yl)-4-(dimethylamino)-2-(naphthalen-1-yl)-1-phenylbutan-2-ol]
MIC (M. scrofulaceum): 0.03 µg/mL (≈ 0.054 µM) | MIC (MOR M. tuberculosis): 0.06 µg/mL (≈ 0.108 µM) | MIC (M. avium [1]): 0.03 to 0.13 µg/mL | cytotoxic effect on cell viability as compared with vehicle (A549): minimal cytotoxic effect | cytotoxic effect on cell viability as compared with vehicle (Calu-3): minimal cytotoxic effect | MIC (M. vaccae): 0.03 µg/mL (≈ 0.054 µM) | MIC (M. chelonae): 0.06 to 0.5 µg/mL | MIC (M. hiberniae): 0.03 µg/mL (≈ 0.054 µM) | MIC99 [2]: 0.015 to 0.12 µg/mL | MIC (M. fortuitum): 0.13 to 0.25 µg/mL | MIC99 (M. avium [3]): 0.01 to 0.03 µg/mL | MIC (M. ulcerans): 0.5 µg/mL (≈ 0.9 µM) | time to maximal plasma concentration after administration ([4]; po): 4 to 6 h | effective half-life [4]: 24 h | half life in tissues [4]: more than 5 months | terminal half life [4]: 5.5 months | MIC [5]: 0.06 µg/mL (≈ 0.108 µM) | MIC99 (M. abscessus [6]): 0.25 to 0.5 µg/mL | MIC (M. marinum): 0.003 µg/mL (≈ 0.0054 µM) | MIC (M. kansasii): 0.03 µg/mL (≈ 0.054 µM) | MIC (M. simiae): 0.03 µg/mL (≈ 0.054 µM) | MIC (M. qordonae): 0.03 µg/mL (≈ 0.054 µM) | MIC (M. smeqmatis mc2 155): 0.12 µg/mL (≈ 0.216 µM) | MIC (M. malmoense): 0.50 µg/mL (≈ 0.9 µM) | MIC (M. abscessus [7]): 0.25 µg/mL (≈ 0.45 µM) | MIC (M. phlei): 0.03 to 0.13 µg/mL | MIC (M. maqeritense): 0.03 µg/mL (≈ 0.054 µM) | Cmax in the sputum [8]: 5000 ng/mL

Reference: patent publication US20220023282A1 (priority 2018, published 2022)
